Calls of active or inactive are those of the source.
Columns and labels:
[1] = tested on: Mus musculus; experiment: Reversal of haloperidol-induced hypolocomotion in mouse at 30 mg/kg, ip; assay type: functional, organism-based; design: dose 30 mg/kg
[2] = target: Adenosine receptor A2a (Homo sapiens, UniProt P29274)
Description: Binding affinity at human adenosine A2A receptor

[3] = tested on: Mus musculus; experiment: Reversal of haloperidol-induced hypolocomotion in po dosed mouse; assay type: functional; conditions: read-out: MED
[4] = tested on: Mus musculus; experiment: Reversal of haloperidol-induced hypolocomotion in mouse at 30 mg/kg, po; assay type: functional, organism-based; design: dose 30 mg/kg
[5] = tested on: Mus musculus; experiment: Reversal of haloperidol-induced hypolocomotion in ip dosed mouse; assay type: functional; conditions: read-out: MED
[6] = tested on: Mus musculus; experiment: Reversal of haloperidol-induced hypolocomotion in mouse at 10 mg/kg, ip; assay type: functional, organism-based; design: dose 10 mg/kg
[7] = tested on: Mus musculus; experiment: Reversal of haloperidol-induced hypolocomotion in mouse at 1 mg/kg, po; assay type: functional, organism-based; design: dose 1 mg/kg
[8] = tested on: Mus musculus; experiment: Reversal of haloperidol-induced hypolocomotion in mouse at 10 mg/kg, po; assay type: functional, organism-based; design: dose 10 mg/kg

Chain of Adenosine receptor A2a (P29274 whole entry): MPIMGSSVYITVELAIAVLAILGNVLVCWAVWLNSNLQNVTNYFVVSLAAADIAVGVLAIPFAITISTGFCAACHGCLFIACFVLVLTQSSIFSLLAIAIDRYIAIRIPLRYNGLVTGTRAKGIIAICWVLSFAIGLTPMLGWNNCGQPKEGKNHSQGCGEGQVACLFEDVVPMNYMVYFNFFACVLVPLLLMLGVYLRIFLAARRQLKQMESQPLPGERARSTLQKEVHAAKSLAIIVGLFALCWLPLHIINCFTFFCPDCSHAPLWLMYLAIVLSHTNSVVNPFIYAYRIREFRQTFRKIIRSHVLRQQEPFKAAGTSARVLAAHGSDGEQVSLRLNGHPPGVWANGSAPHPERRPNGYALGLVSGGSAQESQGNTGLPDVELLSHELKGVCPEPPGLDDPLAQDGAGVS

Compound | Activity [1] | Ki [2] | also measured
Nc1nc(-c2ccco2)c2ncn(C(=O)NCc3ccc(F)cc3)c2n1 | Active | – | –
Cc1cccc(Cn2ncc3c(-c4ccco4)nc(N)nc32)c1 | Active | 3 nM | –
Nc1nc(-c2ccco2)c2cnn(CCc3ccccc3)c2n1 | inactive | 110 nM | –
Nc1nc(-c2ccco2)c2cnn(Cc3cccnc3)c2n1 | Active | 28 nM | –
COc1cccc(Cn2ncc3c(-c4ccco4)nc(N)nc32)c1 | Active | – | –
Nc1nc(-c2ccco2)c2cnn(Cc3cccc([N+](=O)[O-])c3)c2n1 | Active | – | –
Nc1nc(-c2cncs2)c2ncn(C(=O)NCc3ccccc3)c2n1 | Active | 56 nM | –
CS(=O)(=O)c1ccc(Cn2cnc3c(-c4ccco4)nc(N)nc32)cc1 | – | 779 nM | –
Nc1nc(-c2ccco2)c2ncn(C(=O)NCCc3ccccc3)c2n1 | Active | – | –
Cn1ccnc1-c1nc(N)nc2c1cnn2Cc1ccccc1F | inactive | 1620 nM | –
Nc1cccc(Cn2ncc3c(-c4ccco4)nc(N)nc32)c1 | Active | – | –
Cc1nc(-c2ccco2)c2ncn(C(=O)NCc3ccccc3)c2n1 | – | 102 nM | –
Nc1nc(-c2ccco2)c2cnn(Cc3cccc(Cl)c3)c2n1 | Active | – | –
Cc1cccc(Cn2cnc3c(-c4ccco4)nc(N)nc32)c1 | Active | 6 nM | –
Nc1nc(-c2ccco2)c2cnn(Cc3ccccc3)c2n1 | Active | 3 nM | –
Nc1nc(-c2ccco2)c2ncn(Cc3ccc(C(F)(F)F)cc3)c2n1 | Active | – | –
Nc1nc(-c2ccco2)c2cnn(C(=O)NCc3ccccc3)c2n1 | Active | 1 nM | –
Nc1nc(-c2ccco2)c2cnn(Cc3ccc([N+](=O)[O-])cc3)c2n1 | inactive | 119 nM | –
Nc1nc(-c2ccco2)c2ncn(Cc3ccccc3)c2n1 | Active | – | –
Nc1nc(-c2ccco2)c2cnn(CCCc3ccccc3)c2n1 | Active | 4 nM | –
Nc1nc(-c2ccco2)c2cnn(Cc3c(F)cccc3F)c2n1 | Active | – | –
Nc1nc(-c2ccco2)c2ncn(C(=O)NCc3ccccc3Cl)c2n1 | Active | – | –

Compound | Activity [1] | Ki [2] | also measured
COC(=O)c1cccc(Cn2cnc3c(-c4ccco4)nc(N)nc32)c1 | inactive | 45 nM | –
CN(C)c1nc(-c2ccco2)c2cnn(CCc3ccccc3)c2n1 | – | 1890 nM | –
Nc1nc(-c2ccco2)c2ncn(Cc3cccc([N+](=O)[O-])c3)c2n1 | inactive | 85 nM | –
Nc1nc(-c2ccco2)c2cnn(Cc3ccccc3F)c2n1 | Active | 4 nM | –
Nc1nc(-c2ccco2)c2cc[nH]c2n1 | Active | 242 nM | –
Cc1cccc(CNC(=O)n2cnc3c(-c4ccco4)nc(N)nc32)c1 | Active | – | minimal effective dose [3]: 30 mg/kg; Activity [4]: Active; minimal effective dose [5]: 1 mg/kg
Nc1nc(-c2ccccc2)c2ncn(C(=O)NCc3ccccc3)c2n1 | Active | 17 nM | –
Nc1nc(-c2ccco2)c2ncn(C(=O)NCc3cccs3)c2n1 | Active | – | minimal effective dose [3]: 30 mg/kg; Activity [4]: Active; minimal effective dose [5]: < 30 mg/kg
Nc1nc(-c2ccco2)c2ncn(Cc3cccc(C(=O)O)c3)c2n1 | – | 4100 nM | –
Nc1nc(-c2ncc[nH]2)c2cnn(Cc3ccccc3F)c2n1 | – | 2090 nM | –
Cc1ccc(CNC(=O)n2cnc3c(-c4ccco4)nc(N)nc32)cc1 | Active | – | –
Nc1nc(-c2ccco2)c2cnn(Cc3ccccc3Cl)c2n1 | inactive | – | –
C[C@H](NC(=O)n1cnc2c(-c3ccco3)nc(N)nc21)c1ccccc1 | Active | – | –
Nc1nc(-c2ccco2)c2ncn(Cc3cccc(Cl)c3)c2n1 | inactive | 8 nM | –
CSc1nc(-c2ccco2)c2ncn(C(=O)NCc3ccccc3)c2n1 | inactive | 13 nM | –
Nc1nc(-c2ccco2)c2cnn(CC3CCCCC3)c2n1 | Active | 45 nM | –
COc1cccc(Cn2cnc3c(-c4ccco4)nc(N)nc32)c1 | Active | – | –
Nc1nc(-c2ccco2)c2nc[nH]c2n1 | Active | 261 nM | minimal effective dose [3]: 1 mg/kg; Activity [6]: Active; Activity [7]: Active; Activity [4]: inactive; minimal effective dose [5]: 10 mg/kg
Nc1nc(-c2cccs2)c2cnn(Cc3ccccc3F)c2n1 | – | 9 nM | –
Nc1nc(-c2cc[nH]n2)c2cnn(Cc3ccccc3F)c2n1 | Active | – | –
Nc1nc(-c2ccco2)c2ncn(Cc3ccccc3F)c2n1 | Active | 5 nM | –
Nc1nc(-c2ccccn2)c2cnn(Cc3ccccc3F)c2n1 | Active | – | –

Compound | Activity [1] | Ki [2] | also measured
Nc1nc(-c2ccco2)c2ncn(Cc3ccc([N+](=O)[O-])cc3)c2n1 | – | 372 nM | –
Nc1nc(-c2ccco2)c2cnn(Cc3cccc(C(=O)O)c3)c2n1 | inactive | 1320 nM | –
CS(=O)(=O)c1ccc(Cn2ncc3c(-c4ccco4)nc(N)nc32)cc1 | inactive | 340 nM | –
Nc1cccc(Cn2cnc3c(-c4ccco4)nc(N)nc32)c1 | Active | 23 nM | minimal effective dose [3]: 30 mg/kg; Activity [4]: Active; minimal effective dose [5]: 10 mg/kg
Nc1nc(-c2nccs2)c2cnn(Cc3ccccc3F)c2n1 | inactive | 17 nM | –
C[C@@H](NC(=O)n1cnc2c(-c3ccco3)nc(N)nc21)c1ccccc1 | inactive | 26 nM | –
Nc1nc(-c2ccco2)c2cn[nH]c2n1 | Active | 48 nM | –
Nc1nc(-n2ccnn2)c2cnn(Cc3ccccc3F)c2n1 | Active | 71 nM | –
Nc1nc(-c2ccco2)c2cnn(Cc3ccccc3N)c2n1 | Active | – | –
Nc1nc(-c2ccco2)c2ncn(C(=O)Nc3ccccc3)c2n1 | Active | 206 nM | –
CN(C)c1nc(-c2ccco2)c2ncn(C(=O)NCc3ccccc3)c2n1 | inactive | 23 nM | –
Nc1nc(-c2ccco2)c2cnn(Cc3ccco3)c2n1 | Active | 36 nM | –
Nc1nc(-c2ccco2)c2ncn(Cc3c(F)cccc3F)c2n1 | Active | – | –
Nc1nc(-c2cccs2)c2ncn(C(=O)NCc3ccccc3)c2n1 | inactive | 13 nM | –
Nc1nc(-c2ccco2)c2ncn(C(=O)NCc3ccco3)c2n1 | Active | – | minimal effective dose [3]: 10 mg/kg; Activity [8]: Active; Activity [4]: Active; minimal effective dose [5]: < 30 mg/kg
Nc1nc(-c2ccco2)c2cnn(Cc3ccc(C(F)(F)F)cc3)c2n1 | inactive | – | –
COC(=O)c1cccc(Cn2ncc3c(-c4ccco4)nc(N)nc32)c1 | Active | 4 nM | –
Nc1nc(-c2ccco2)c2cnn(Cc3ccccc3[N+](=O)[O-])c2n1 | inactive | 26 nM | –
Nc1nc(-c2ccco2)c2ncn(C(=O)NCc3ccccc3)c2n1 | Active | – | –
OCCNc1nc(-c2ccco2)c2cnn(CCc3ccccc3)c2n1 | inactive | 135 nM | –
